Results on two compounds are retold here after patent US20090069551A1, “Flavorant Compounds” (priority 2006, published 2009).

The nature of experiment [1]: Sensorial taste evaluation: taste thresholds by modified duo test with a sensory panel. Format: in vivo. The settings on record: for taste threshold: modified duo test, sample versus tap water; for threshold concentration, times lower than the threshold concentration of catechin: relative to catechin. The text has this: Sensorial taste evaluation of (E)-6-(3-hydroxyphenyl)-(4-O-β-D-glucopyranoside)hex-5-en-2-one and (3E,5E)-6-[3-Hydroxy-4-O-β-D-glucopyranoside-phenyl]-hexa-3 ,5-dien-2-one
For evaluation of taste thresholds of the isolated substances, a modified duo test is used. […] As astringent substances can remain longer on the tongue or possibly can be fortified by addition of tap water, the assessed dilutions (tap water and assay) were given on two different regions of the tongue to compare the taste impressions. The panelists had to determine the dilution at which a difference between sample and tap water could be found.

A short description of experiment [2]: Isoastringency: isointensity of astringent perception with a 700 μM aqueous catechin solution. The settings on record: versus 700 μM aqueous catechin solution (pH 4.5). The experiment is classed as in vivo.

Turning to `CC(=O)/C=C/C=C/c1ccc(O[C@@H]2OC(CO)[C@@H](O)C(O)C2O)c(O)c1` (stereo partly drawn) [(3E,5E)-6-[3-Hydroxy-4-O-β-D-glucopyranoside-phenyl]-hexa-3,5-dien-2-one], in experiment [1], the taste threshold worked out at 4.0 µmol/L and the “threshold concentration, times lower than the threshold concentration of catechin” value is recorded as “about 100 times”. Besides, the “isoastringency: concentration needed to reach isointensity of astringent perception with catechin solution” value in experiment [2] was determined as 200 µmol/L.

`CC(=O)CC/C=C/c1ccc(O[C@@H]2OC(CO)[C@@H](O)C(O)C2O)c(O)c1` (stereo partly drawn) [(E)-6-(3-hydroxyphenyl)-(4-O-β-D-glucopyranoside)hex-5-en-2-one]: in experiment [1], the taste threshold worked out at 4.3 µmol/L and the “threshold concentration, times lower than the threshold concentration of catechin” value is “about 100 times”. Also, the “isoastringency: concentration needed to reach isointensity of astringent perception with catechin solution” value in experiment [2] came to 120 µmol/L.
